Laboratory results reported in US20230310446A1, “RHO KINASE INHIBITION FOR TREATMENT OF PROLIFERATIVE VITREORETINOPATHY AND CONDITIONS ASSOCIATED WITH EPITHELIAL TO MESENCHYMAL TRANSITION” (The Schepens Eye Research Institute, Inc., priority 2020, published 2023).
Entries after “also recorded” stand apart in the source; their conditions may differ.

Experiments:
PVR explants [1] = test: Ex vivo model of PVR: outgrowth from PVR membrane explants embedded in Matrigel; type: cell-based; conditions: ex vivo cultured explants of PVR tissue from human subjects
C-PVR cells [2] = test: TGF-β2 induced mesenchymal phenotypic change, phase images; type: cell-based, human; conditions: 1 uM, TGF-β2 10 ng/ml, day 3
Experimental: PVR cells were seeded in well plates for a period of 72 hours. Cells were pre-treated with rho-kinase inhibitors: ripasudil, netarsudil, fasudil and […] (1 uM) for 24 hours, then treated with TGF-β2 […], rho-kinase inhibitors (1 uM), and control with no drug, using triplicates for each condition. Changes in phenotype were examined via phase images at day 3.

PVR explants [3] = test: Ex vivo model of PVR: outgrowth from PVR membrane explants embedded in Matrigel; type: cell-based, human; conditions: for explant outgrowths, inhibition of proliferation and migration: 1 μM, all time points
Experimental: PVR membranes were divided into pieces and embedded in growth factor reduced Matrigel (354,230; BD Biosciences, San Jose, CA) in a 24-well plate and placed at 37° C. for 30 min for the Matrigel to solidify. The specimens were treated with either vehicle or Rho kinase inhibitors, Netarsudil (60 nM), Ripasudil (300 nM), Fasudil (1 uM), and Y27632 (1 uM) in 500 μl in PVR growth media comprising: • 1) Endothelial base medium (EBM2; Lonza-CC-3156)+ • 2) EGM 2 SingleQuot Kit suppl. & Growth factors (Lonza; CC-4176)+ • 3) 10% fetal bovine serum (Atlanta Biologicals)+ • 4) 1% Penicillin/Streptomycin+1% L-Glutamine • *** The total FBS in the media is 12% (2% from SingleQuot+10% additional) Phase contrast images were taken using an EVOS FL imaging system (Life Technologies) and the distance of growth from the embedded tissue was quantified using Image J (National Institutes of Health). PVR membranes were obtained from human donors with PVR grade C undergoing surgery. Membrane fragments placed on a matrigel mount with PVR cell growth media and treated with Rho-Kinase inhibitors ripasudil (1 μM), netarsudil (1 μM), fasudil (1 μM), Y-27632 (1 μM) and control with no drug.

C-PVR cells [4] = test: CyQUANT Direct Cell Proliferation Assay of primary PVR cultures; type: cell-based, human; conditions: 48 hours
Experimental: PVR cells were cultured and seeded into 96 well assay plates at 10,000 cells/well in complete growth media. […] Cell proliferation was assessed at 24, and 48 hour time points by CyQUANT® Direct Cell Proliferation Assay (Thermofisher Scientific) and compared to vehicle controls at 24, and 48 hours post treatment. The data was expressed as percent cell inhibition. […] Cell proliferation and cell death LDH levels were measured and quantified at 48 hours.

C-PVR cells [5] = test: Cell migration of PVR cells quantified with phase images; type: cell-based, human; conditions: 1 μM
Experimental: PVR cells cultured using Rho-Kinase inhibitors ripasudil (1 μM), netarsudil (1 μM), fasudil (1 μM), Y-27632 (1 μM) and control with no drug. Cell migration was measured and quantified with phase images at 0, 3, 6, and 12 hours.

C-PVR cells [6] = test: LDH release cytotoxicity assay (CytoTox 96) of primary PVR cultures; type: cell-based, human; conditions: 48 hours
Experimental: Conditioned media was also collected at 24, and 48 hour time points for each condition, and percentage cell death was quantified by measuring LDH release using the CytoTox 96 Non-Radioactive Cytotoxicity Assay (Promega, Madison, WI, USA). As a positive control, the same number of cells maintained in parallel was lysed by two freeze—thaw cycles; the conditioned media were collected to measure the maximum LDH release. Percentage LDH release was calculated as 100%×(experimental LDH−spontaneous LDH)/(maximal LDH−spontaneous LDH).
PVR cells were cultured using Rho-Kinase inhibitors ripasudil, netarsudil, fasudil, Y-27632 at different concentrations (0.1 μM, 10 μM) and control with no drug. Cell proliferation and cell death LDH levels were measured and quantified at 48 hours.

RhoA = RhoA pull down activation assay after TGF-β2 treatment; type: cell-based, human; conditions: C-PVR cells
Experimental: C-PVR cells were cultured and seeded in T-25 flasks at 1 million cells per flask. […] Cells were washed with ice-cold PBS and cell lysates were harvested with a cell scraper. Protein concentration of each time point was measured to ensure equal protein concentration. Using freshly prepared cell lysates, equivalent protein amounts (300-500 ug total protein) were added to 30 ul of rhotekin-RBD beads (Cytoskeleton, Denver, CO) for the […] pulldown assay. Pulldown assay supernatants were quantified using western blot analysis. An anti-RhoA primary antibody (Cytoskeleton, Denver, CO) was added and left overnight at 4° C., After primary antibody intubation, HRP labeled secondary antibody was added, following by addition on HRP detection reagent and intubated at room temperature for 5 minutes,
PVR cells cultured in T-25 flasks and treated with TGF-β2 […] at 80% confluence. […]

[7] = 7 days post embedding in Matrigel
[8] = 14 days post embedding in Matrigel

C[C@@H](N)[C@H]1CC[C@H](C(=O)Nc2ccncc2)CC1.Cl.Cl [Y-27632, (+)-(R)-trans-4-(1-aminoethyl)-N-(4-pyridyl)cyclohexanecarboxamide dihydrochloride]
numbers of live cells in the explants (PVR explants [1]): significantly reduced
mesenchymal phenotypic change in TGF-β2 treated C-PVR cells (C-PVR cells [2]): slightly decreased
explant outgrowths, inhibition of proliferation and migration (PVR explants [3]; listed as Y-2762, dihydrochloride): no outgrowths and almost complete inhibition of proliferation and migration

O=S(=O)(c1cccc2cnccc12)N1CCCNCC1 [fasudil, 1-(5-isoquinolinesulfonyl)-homopiperazine]
reduction of proliferation in C-PVR cells (C-PVR cells [4]; 0.1 μM (lowest concentration)): 24%
reduction of proliferation in C-PVR cells (C-PVR cells [4]; 1 μM (lower concentration)): 39%
reduction of proliferation in C-PVR cells (C-PVR cells [4]; 10 μM (highest concentration)): 20%
reduction of migration in C-PVR cells (C-PVR cells [5]): 40%
numbers of live cells in the explants (PVR explants [1]): significantly reduced
cell death detected by LDH analysis (C-PVR cells [6]; all concentrations (10-0.1 μM)): low levels of cell death
mesenchymal phenotypic change in TGF-β2 treated C-PVR cells (C-PVR cells [2]): slightly decreased
explant outgrowths, inhibition of proliferation and migration (PVR explants [3]): no outgrowths and almost complete inhibition of proliferation and migration

Cc1ccc(C(=O)OCc2ccc([C@@H](CN)C(=O)Nc3ccc4cnccc4c3)cc2)c(C)c1 [netarsudil]
reduction of proliferation in C-PVR cells (C-PVR cells [4]; 0.1 μM (lowest concentration)): 39%
reduction of proliferation in C-PVR cells (C-PVR cells [4]; 1 μM (lower concentration)): 37%
reduction of proliferation in C-PVR cells (C-PVR cells [4]; 10 μM (highest concentration)): 95%
reduction of migration in C-PVR cells (C-PVR cells [5]): 100%
cell death detected by LDH analysis (C-PVR cells [6]; all concentrations (10-0.1 μM)): dose dependent cell death
cell death detected by LDH analysis (C-PVR cells [6]; low concentrations (0.1 μM)): Low levels of cell death
explant outgrowth (PVR explants [3]; [7]): 4.2 mm
explant outgrowth (PVR explants [3]; [8]): 37 mm

C[C@H]1CNCCCN1S(=O)(=O)c1cccc2cncc(F)c12 [ripasudil, 4-fluoro-5-[[(2S)-2-methyl-1,4-diazepan-1-yl]sulfonyl]isoquinoline]
reduction of proliferation in C-PVR cells (C-PVR cells [4]; 0.1 μM (lowest concentration)): 21%
reduction of proliferation in C-PVR cells (C-PVR cells [4]; 1 μM (lower concentration)): 25%
reduction of proliferation in C-PVR cells (C-PVR cells [4]; 10 μM (highest concentration)): 44%
reduction of migration in C-PVR cells (C-PVR cells [5]): 65%
cell death detected by LDH analysis (C-PVR cells [6]; all concentrations (10-0.1 μM)): dose dependent cell death; also recorded: Low levels of cell death
mesenchymal phenotypic change in TGF-β2 treated C-PVR cells (C-PVR cells [2]): slightly decreased
explant outgrowth (PVR explants [3]; [7]): 0.8 mm
explant outgrowth (PVR explants [3]; [8]): 15 mm

B1: TGF-β2: Recombinant Human TGF-β2 growth factor (PeproTech) used as stimulus of EMT and RhoA activation (protein, UniProt P61812 303-414, looked up)
Transforming growth factor …: ALDAAYCFRNVQDNCCLRPLYIDFKRDLGWKWIHEPKGYNANFCAGACPYLWSSDTQHSRVLSLYNTINPEASASPCCVSQDLEPLTILYYIGKTPKIEQLSNMIVKSCKCS
RhoA activation, increase over control (RhoA; 15 minutes after stimulation): 1.5
RhoA activation, increase over control (RhoA; 30 minutes after stimulation): 2 fold
RhoA activation versus control (RhoA; 60 minutes after stimulation): slight decrease over control
